Measurements as given in paper PMC12323131, “CSRP2 promotes the glioblastoma mesenchymal phenotype via p130Cas-mediated NF-κB and MAPK pathways” (Journal of Experimental & Clinical Cancer Research : CR, 2025).

Biological target: T1, CSRP2 recombinant protein (Homo sapiens, UniProt Q16527)
T1 construct: labelled with RED-NHS dye
T1 sequence (Q16527 1-193): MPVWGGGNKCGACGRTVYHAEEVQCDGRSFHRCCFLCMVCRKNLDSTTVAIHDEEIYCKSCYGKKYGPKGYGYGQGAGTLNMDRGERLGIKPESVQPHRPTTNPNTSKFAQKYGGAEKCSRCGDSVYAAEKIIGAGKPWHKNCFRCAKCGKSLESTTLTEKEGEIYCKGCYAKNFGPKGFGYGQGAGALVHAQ
Assay: microscale thermophoresis
Format: binding

SMILES: O=C1c2c(O)ccc(O)c2C(=O)c2c(NCCNCCO)ccc(NCCNCCO)c21 [Mitoxantrone]
- Kd: 370 nM
